# According to patent US20220324865A1 (Bayer Aktiengesellschaft, priority 2018, published 2022):
# pIC50: −log10 of the molar value.
# Molecular target: T1, human EP3 receptor (Homo sapiens, UniProt P43115)
# T1 construct: expressed in transfected cells; host or cells: CHO K1 (Chinese Hamster Ovary), stably co-transfected with Galpha16 and mitochondrial clytin
# T1 sequence (P43115 1-390): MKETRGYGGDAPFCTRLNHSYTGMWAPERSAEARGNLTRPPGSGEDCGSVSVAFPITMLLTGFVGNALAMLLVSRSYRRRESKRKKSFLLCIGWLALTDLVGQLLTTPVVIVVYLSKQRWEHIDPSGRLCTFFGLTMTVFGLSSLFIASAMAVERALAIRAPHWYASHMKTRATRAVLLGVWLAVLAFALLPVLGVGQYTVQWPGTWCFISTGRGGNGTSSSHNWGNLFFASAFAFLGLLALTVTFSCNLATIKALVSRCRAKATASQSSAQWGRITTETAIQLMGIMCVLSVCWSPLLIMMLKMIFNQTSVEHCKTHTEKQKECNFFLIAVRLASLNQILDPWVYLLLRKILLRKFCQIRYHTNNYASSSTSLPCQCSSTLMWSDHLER
# Test: Cellular in vitro assay for determining EP3 receptor activity (human EP3 cell line, sulprostone-stimulated calcium luminescence)
# Format: cell-based
# Conditions: CHO cells expressing human EP3 and mitochondrial Clytin; antagonist mode, sulprostone at EC50; read-out: EP3 CHO mtCLY ANTAG IC50
# In short: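 Antagonist activity was measured as inhibition of the luminescent calcium signal elicited by EC50 sulprostone, following 10 min compound pretreatment. The cell line was recombinant CHO K1 co-expressing human EP3, Gα16 and the photoprotein Clytin, reconstituted with coelenterazine.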
row,pIC50,Structure (SMILES)
1,8.94,Cc1cc(-c2cn3nc(C(=O)N[C@@H](C)C4CC4)c(C4CC(F)(F)C4)c3c(=O)[nH]2)ccc1Cl [6-558]
2,8.89,"Cc1ccc(-c2cn3nc(C(=O)N[C@H](C)c4ccc(F)cc4)c(C#N)c3c(=O)[nH]2)cc1C [Example 1-73, 3-Cyano-6-(3,4-dimethylphenyl)-N-[(1R)-1-(4-fluorophenyl)ethyl]-4-oxo-4,5-dihydropyrazolo-[1,5-a]pyrazine-2-carboxamide]"
3,8.26,"Cc1cccc(C)c1OCC(C)NC(=O)c1cc2c(=O)[nH]c(-c3ccc4ccccc4c3)cn2n1 (stereo not shown) [Example 2-30, N-[1-(2,6-Dimethylphenoxy)propan-2-yl]-6-(2-naphthyl)-4-oxo-4,5-dihydropyrazolo[1,5-a]pyrazine-2-carboxamide]"
4,8.06,"Cc1ccc(-c2cn3nc(C(=O)N[C@@H](CCO)c4ccc(F)cc4)c(C#N)c3c(=O)[nH]2)cc1C [Example 1-75, 3-Cyano-6-(3,4-dimethylphenyl)-N-[(1S)-1-(4-fluorophenyl)-3-hydroxpropyl]-4-oxo-4,5-dihydropyrazolo[1,5-a]pyrazine-2-carboxamide]"
5,8.77,"CCC(CNC(=O)c1cc2c(=O)[nH]c(-c3ccc4ccccc4c3)cn2n1)n1cc(Cl)cn1 (stereo not shown) [Example 2-10, N-[2-(4-Chlor-1H-pyrazol-1-yl)butyl]-6-(2-naphthyl)-4-oxo-4,5-dihydropyrazolo[1,5-a]pyrazine-2-carboxamide]"
6,8.94,CCn1cc(CNC(=O)c2nn3cc(-c4ccc(C)c(C)c4)[nH]c(=O)c3c2Cl)c(C)n1 [6-112]
7,8.65,"COc1ccc(C(C)NC(=O)c2cc3c(=O)[nH]c(-c4ccc5ccccc5c4)cn3n2)cn1 (stereo not shown) [Example 1-104, N-[1-(6-Methompyridin-3-yl)ethyl]-6-(2-naphthyl)-4-oxo-5H-pyrazolo[1,5-a]pyrazine-2-carboxamide]"
8,8.56,"Cc1c(C(=O)NC(C)CC2CC2)nn2c(C)c(-c3ccc4ccccc4c3)[nH]c(=O)c12 (stereo not shown) [Example 3-10, N-(1-Cyclopropylpropan-2-yl)-3,7-dimethyl-6-(2-naphthyl)-4-oxo-4,5-dihydropyrazolo[1,5-a]pyrazine-2-carboxamide]"
9,8.57,"Cc1ccc(-c2cn3nc(C(=O)NCC(O)C(F)F)c(C4CC4)c3c(=O)[nH]2)cc1F (single isomer, unassigned) [6-371]"
10,8.37,"Cc1cccc2ncc(-c3cn4nc(C(=O)N[C@H]5CCCc6ccccc65)c(C(C)C)c4c(=O)[nH]3)cc12 [Example 4-58, 6-(5-Methylquinolin-3-yl)-4-oxo-3-(propan-2-yl)-N-[(7S)-1,2,3,4-tetrahydronaphthalen-1-yl]-4,5-dihydropyrazolo[1,5-a]pyrazine-2-carboxamide]"
11,7.34,"Cc1ccc(-c2cn3nc(C(=O)NC4(c5ccc(F)cc5)CCN(C)C4)cc3c(=O)[nH]2)cc1C (single isomer, unassigned) [6-363]"
12,8.76,"Cc1cccc2ncc(-c3cn4nc(C(=O)Nc5ccnn5C)c(C(C)C)c4c(=O)[nH]3)cc12 [Example 4-19, N-(1-Methyl-1H-pyrazol-5-yl)-6-(5-methylquinolin-3-yl)-4-oxo-3-(propan-2-yl)-4,5-dihydropyrazolo[1,5-a]pyrazine-2-carboxamide]"
13,8.48,"Cc1cc(-c2cn3nc(C(=O)N[C@H]4CCN(C5CC5)C4)c(C4CC4)c3c(=O)[nH]2)ccc1Cl (single isomer, unassigned) [6-323]"
14,8.71,"Cc1nn(C)cc1CNC(=O)c1nn2c(C)c(-c3ccc4ccccc4c3)[nH]c(=O)c2c1C [Example 3-9, N-[(1,3-Dimethyl-1H-pyrazol-4-yl)methyl]-3,7-dimethyl-6-(naphthalen-2-yl)-4-oxo-4,5-dihydropyrazolo[1,5-a]pyrazine-2-carboxamide]"
15,8.48,CN1CC(NC(=O)c2nn3cc(-c4ccc(Cl)cc4)[nH]c(=O)c3c2C2CC2)(c2ccc(F)cc2)C1 [6-673]
16,8.50,COCc1c(C(=O)N[C@@H](c2ccc(F)cc2)C(C)(C)O)nn2cc(-c3ccc(Cl)c(C)c3)[nH]c(=O)c12 [6-623]

row,pIC50,Structure (SMILES)
1,8.77,"C[C@@H](NC(=O)c1cc2c(=O)[nH]c(-c3ccc4c(c3)CCCC4)cn2n1)c1ccc(F)cc1 [Example 1-101, N-[(1R)-1-(4-Fluorophenyl)ethyl]-4-oxo-6-(5,6,7,8-tetrahydronaphthalen-2-yl)-4,5-dihydropyrazolo[1,5-a]pyrazine-2-carboxamide]"
2,8.35,"Cc1cccc2ncc(-c3cn4nc(C(=O)NCc5cccc(CN6CCCC6)c5)c(C(C)C)c4c(=O)[nH]3)cc12 [Example 4-81, 6-(5-Methylquinolin-3-yl)-4-oxo-3-(propan-2-yl)-N-({3-[(pyrrolidin-1-yl)methyl]phenyl}methyl)-4,5-dihydropyrazolo[1,5-a]pyrazine-2-carboxamide]"
3,8.32,Cc1ccc(-c2cn3nc(C(=O)N[C@@H](C)C(C)(C)C)c(C4CC4)c3c(=O)[nH]2)cc1Cl [6-253]
4,8.57,"Cc1c(C(=O)NC(C)c2cccnc2)nn2c(C)c(-c3ccc4ccccc4c3)[nH]c(=O)c12 (stereo not shown) [Example 3-73, 3,7-Dimethyl-6-(2-naphthyl)-4-oxo-N-[1-(3-pyridyl)ethyl]-5H-pyrazolo[1,5-a]pyrazine-2-carboxamide]"
5,8.35,"Cc1cccc2ncc(-c3cn4nc(C(=O)NCC5CNC(=O)O5)c(C(C)C)c4c(=O)[nH]3)cc12 (stereo not shown) [Example 4-42, 3-Isopropyl-6-(5-methyl-3-quinolyl)-4-oxo-N-[(2-oxooxazolidin-5-yl)methyl]-5H-pyrazolo[1,5-a]pyrazine-2-carboxamide]"
6,8.00,"Cc1cc(-c2cn3nc(C(=O)NC(c4ccc(F)cc4)C4(O)CC4)c(C4CC4)c3c(=O)[nH]2)ccc1F (single isomer, unassigned) [6-652]"
7,8.70,CC(C)c1c(C(=O)N[C@H](CCO)c2ccc(F)cc2)nn2cc(-c3ccc(Cl)cc3)[nH]c(=O)c12 [6-670]
8,9.06,Cc1ccc(-c2cn3nc(C(=O)N[C@H](CCO)c4ccc(F)cc4)cc3c(=O)[nH]2)cc1Cl [6-122]
9,8.11,"COc1ccc(CNC(=O)c2cc3c(=O)[nH]c(-c4ccc(C)c(Cl)c4)c(C)n3n2)cc1OC [Example 1-129, 6-(3-Chloro-4-methylphenyl)-N-(3,4-dimethoxybenzyl)-7-methyl-4-oxo-4,5-dihydropyrazolo-[1,5-a]pyrazine-2-carboxamide]"
10,9.06,"O=C(N[C@H](CCO)c1ccc(F)cc1)c1cc2c(=O)[nH]c(-c3ccc4c(c3)CCC4)cn2n1 [Example 1-97, 6-(2,3-Dihydro-1H-inden-5-yl)-N-[(1R)-1-(4-fluorophenyl)-3-hydroxpropyl]-4-oxo-4,5-dihydropyrazolo[1,5-a]pyrazine-2-carboxamide]"
11,8.78,O=C(N[C@H](CN1CC(F)(F)C1)c1ccccc1)c1cc2c(=O)[nH]c(-c3ccc4ccccc4c3)cn2n1 [6-544]
12,8.26,C[C@@H](CO)NC(=O)c1nn2cc(-c3ccc(Cl)c(Cl)c3)[nH]c(=O)c2c1C1CC1 [6-414]
13,8.87,"Cc1cccc2ncc(-c3cn4nc(C(=O)NCc5ccc6[nH]c(=O)[nH]c6c5)c(C(C)C)c4c(=O)[nH]3)cc12 [Example 4-80, 6-(5-Methylquinolin-3-yl)-4-oxo-N-[(2-oxo-2,3-dihydro-1H-benzimidazol-5-yl)methyl]-3-(propan-2-yl)-4,5-dihydropyrazolo[1,5-a]pyrazine-2-carboxamide]"
14,8.55,Cc1ccc(-c2cn3nc(C(=O)N[C@@H](C4CC4)C(C)(C)O)c(C4CC4)c3c(=O)[nH]2)cc1Cl [6-275]
15,8.70,"Cc1cccc2ncc(-c3cn4nc(C(=O)NC(C)c5ccccn5)c(C(C)C)c4c(=O)[nH]3)cc12 (stereo not shown) [Example 4-54, 3-Isopropyl-6-(5-methyl-3-quinolyl)-4-oxo-N-[1-(2-pyridyl)ethyl]-5H-pyrazolo[1,5-a]pyrazine-2-carboxamide]"
